Test results taken from PubChem BioAssay (NCI).
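Grown in 96-well plates, cells were treated for 48 hours with each compound at five concentrations. Insufficient inhibition: endpoint recorded as highest concentration tested. Here, GI50 denotes the concentration required for 50% inhibition of growth. TGI marks complete inhibition of growth.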

Tests used:
Test in all cases: NCI tumour cell line growth inhibition, 48 h
SK-OV-3 ovarian = test system: SK-OV-3 ovarian
DU-145 prostate = test system: DU-145 prostate
ACHN renal = test system: ACHN renal
T-47D breast = test system: T-47D breast
NCI-H226 lung = test system: NCI-H226 lung
M14 melanoma = test system: M14 melanoma
HS 578T breast = test system: HS 578T breast
SNB-19 CNS = test system: SNB-19 CNS
SF-539 CNS = test system: SF-539 CNS
OVCAR-4 ovarian = test system: OVCAR-4 ovarian
A498 renal = test system: A498 renal
UO-31 renal = test system: UO-31 renal
SNB-75 CNS = test system: SNB-75 CNS
U251 CNS = test system: U251 CNS
TK-10 renal = test system: TK-10 renal
HOP-62 NSCLC = test system: HOP-62 NSCLC
RPMI-8226 leukemia = test system: RPMI-8226 leukemia
A549 NSCLC = test system: A549 NSCLC
HCT-15 colon = test system: HCT-15 colon
786-0 renal = test system: 786-0 renal
IGROV1 ovarian = test system: IGROV1 ovarian
OVCAR-3 ovarian = test system: OVCAR-3 ovarian
KM12 colon = test system: KM12 colon
HCT-116 colon = test system: HCT-116 colon
RXF 393 renal = test system: RXF 393 renal
UACC-257 melanoma = test system: UACC-257 melanoma
OVCAR-8 ovarian = test system: OVCAR-8 ovarian
MCF7 breast = test system: MCF7 breast
COLO 205 colon = test system: COLO 205 colon
SK-MEL-28 melanoma = test system: SK-MEL-28 melanoma
NCI-H522 lung = test system: NCI-H522 lung
MDA-MB-231 breast = test system: MDA-MB-231 breast
HL-60(TB) leukemia = test system: HL-60(TB) leukemia
NCI-H460 lung = test system: NCI-H460 lung
SK-MEL-5 melanoma = test system: SK-MEL-5 melanoma
MOLT-4 leukemia = test system: MOLT-4 leukemia
HT29 colon = test system: HT29 colon
MALME-3M melanoma = test system: MALME-3M melanoma
LOX IMVI melanoma = test system: LOX IMVI melanoma
EKVX NSCLC = test system: EKVX NSCLC
HCC-2998 colon = test system: HCC-2998 colon
PC-3 prostate = test system: PC-3 prostate
OVCAR-5 ovarian = test system: OVCAR-5 ovarian
BT-549 breast = test system: BT-549 breast
CCRF-CEM leukemia = test system: CCRF-CEM leukemia
SN12C renal = test system: SN12C renal
SW-620 colon = test system: SW-620 colon
NCI/ADR-RES ovarian = test system: NCI/ADR-RES ovarian
SF-268 CNS = test system: SF-268 CNS
SK-MEL-2 melanoma = test system: SK-MEL-2 melanoma
MDA-MB-435 = test system: MDA-MB-435
SR leukemia = test system: SR leukemia
NCI-H23 lung = test system: NCI-H23 lung
CAKI-1 renal = test system: CAKI-1 renal
K-562 leukemia = test system: K-562 leukemia
SF-295 CNS = test system: SF-295 CNS
UACC-62 melanoma = test system: UACC-62 melanoma

COC(=O)c1cc2cc(-c3ccc(OC)cc3)cnc2[nH]1
GI50 (SK-OV-3 ovarian): 2.35 µM | TGI (SK-OV-3 ovarian): 12.9 µM | GI50 (DU-145 prostate): 2.6 µM | TGI (DU-145 prostate): 16 µM | GI50 (ACHN renal): 7.77 µM | TGI (ACHN renal): 57.1 µM | GI50 (T-47D breast): 0.726 µM | TGI (T-47D breast): > 100 µM | GI50 (NCI-H226 lung): 9.15 µM | TGI (NCI-H226 lung): 57.3 µM | GI50 (M14 melanoma): 0.511 µM | TGI (M14 melanoma): 7.52 µM | TGI (HS 578T breast): > 30.3 µM | GI50 (SNB-19 CNS): 2.27 µM | TGI (SNB-19 CNS): > 64.7 µM | GI50 (SF-539 CNS): 1.11 µM | TGI (SF-539 CNS): 3.79 µM | GI50 (OVCAR-4 ovarian): 3.47 µM | TGI (OVCAR-4 ovarian): > 100 µM | GI50 (A498 renal): 1.63 µM | TGI (A498 renal): 14.3 µM | GI50 (UO-31 renal): 4.06 µM | TGI (UO-31 renal): 24.1 µM | GI50 (SNB-75 CNS): 1.68 µM | TGI (SNB-75 CNS): 21.3 µM | GI50 (U251 CNS): 0.857 µM | TGI (U251 CNS): 16.6 µM | GI50 (TK-10 renal): 4.26 µM | TGI (TK-10 renal): 21.8 µM | GI50 (HOP-62 NSCLC): 2.95 µM | TGI (HOP-62 NSCLC): 21.2 µM | GI50 (RPMI-8226 leukemia): 1.29 µM | TGI (RPMI-8226 leukemia): > 28 µM | GI50 (A549 NSCLC): 1.13 µM | TGI (A549 NSCLC): 40.3 µM | GI50 (HCT-15 colon): 0.6 µM | TGI (HCT-15 colon): > 100 µM | GI50 (786-0 renal): 1.64 µM | TGI (786-0 renal): 14.6 µM | GI50 (IGROV1 ovarian): 0.439 µM | TGI (IGROV1 ovarian): 2.77 µM | GI50 (OVCAR-3 ovarian): 0.359 µM | TGI (OVCAR-3 ovarian): 1.19 µM | GI50 (KM12 colon): 0.418 µM | TGI (KM12 colon): 12.9 µM | GI50 (HCT-116 colon): 0.39 µM | TGI (HCT-116 colon): 11.7 µM | GI50 (RXF 393 renal): 1.85 µM | TGI (RXF 393 renal): 5.96 µM | GI50 (UACC-257 melanoma): 7.35 µM | TGI (UACC-257 melanoma): > 100 µM | GI50 (OVCAR-8 ovarian): 1.52 µM | TGI (OVCAR-8 ovarian): 16.4 µM | GI50 (MCF7 breast): 0.452 µM | TGI (MCF7 breast): > 100 µM | GI50 (COLO 205 colon): 0.774 µM | GI50 (SK-MEL-28 melanoma): 6.27 µM | TGI (SK-MEL-28 melanoma): > 100 µM | GI50 (NCI-H522 lung): 0.767 µM | TGI (NCI-H522 lung): 5.48 µM | GI50 (MDA-MB-231 breast): 4.11 µM | TGI (MDA-MB-231 breast): 31.2 µM | GI50 (HL-60(TB) leukemia): 0.767 µM | TGI (HL-60(TB) leukemia): > 28.1 µM | GI50 (NCI-H460 lung): 0.565 µM | TGI (NCI-H460 lung): 11.6 µM | GI50 (SK-MEL-5 melanoma): 0.922 µM | TGI (SK-MEL-5 melanoma): 15.8 µM | GI50 (MOLT-4 leukemia): 1.06 µM | TGI (MOLT-4 leukemia): > 100 µM | GI50 (HT29 colon): 0.399 µM | TGI (HT29 colon): 23.4 µM | GI50 (MALME-3M melanoma): 2.87 µM | TGI (MALME-3M melanoma): 37.9 µM | GI50 (LOX IMVI melanoma): 2.19 µM | TGI (LOX IMVI melanoma): > 100 µM | GI50 (EKVX NSCLC): 5.87 µM | TGI (EKVX NSCLC): > 100 µM | GI50 (HCC-2998 colon): 2.34 µM | TGI (HCC-2998 colon): 18.9 µM | GI50 (PC-3 prostate): 1.26 µM | TGI (PC-3 prostate): 15 µM | GI50 (OVCAR-5 ovarian): 11.3 µM | TGI (OVCAR-5 ovarian): 73.7 µM | GI50 (BT-549 breast): 1.08 µM | TGI (BT-549 breast): > 32.2 µM | GI50 (CCRF-CEM leukemia): 2.61 µM | TGI (CCRF-CEM leukemia): > 100 µM | GI50 (SN12C renal): 5.73 µM | TGI (SN12C renal): > 51.6 µM | GI50 (SW-620 colon): 0.389 µM | TGI (SW-620 colon): > 100 µM | GI50 (NCI/ADR-RES ovarian): 0.36 µM | TGI (NCI/ADR-RES ovarian): 3.41 µM | GI50 (SF-268 CNS): 2.05 µM | TGI (SF-268 CNS): 27.7 µM | GI50 (SK-MEL-2 melanoma): 2.76 µM | TGI (SK-MEL-2 melanoma): > 67.3 µM | GI50 (MDA-MB-435): 0.227 µM | TGI (MDA-MB-435): 0.666 µM | GI50 (SR leukemia): 0.286 µM | TGI (SR leukemia): 21.1 µM | GI50 (NCI-H23 lung): 3.33 µM | TGI (NCI-H23 lung): 24.1 µM | GI50 (CAKI-1 renal): 2.28 µM | TGI (CAKI-1 renal): > 38.9 µM | GI50 (K-562 leukemia): 0.427 µM | TGI (K-562 leukemia): > 100 µM | GI50 (SF-295 CNS): 1.32 µM | TGI (SF-295 CNS): 11.4 µM | GI50 (UACC-62 melanoma): 1.88 µM | TGI (UACC-62 melanoma): > 70.1 µM
